Reference: ChEMBL document CHEMBL5346899, “PKM2/PDK1 dual-targeted shikonin derivatives restore the sensitivity of EGFR-mutated NSCLC cells to gefitinib by remodeling glucose metabolism” (Eur J Med Chem, 2023)
Active and inactive are the calls of the source. No cut-off for these calls is given here.

Key:
[1] = system: NCI-H1975; test: cells; assay type: functional, cell-based; settings: Homo sapiens, NCI-H1975, 24 h
Description: Antiproliferative activity against human NCI-H1975 cells assessed as inhibition of cell growth incubated for 24 hrs by CCK-8 assay

[2] = system: HCC827; test: cells; assay type: functional, cell-based; settings: Homo sapiens, HCC827, 24 h
Description: Antiproliferative activity against human HCC827 cells assessed as inhibition of cell growth incubated for 24 hrs by CCK-8 assay

[3] = system: A549; test: cells; assay type: functional, cell-based; settings: Homo sapiens, A549, 24 h
Description: Antiproliferative activity against human A549 cells assessed as inhibition of cell growth incubated for 24 hrs by CCK-8 assay

[4] = in vitro; settings: human, HEK293T cells
Description: Cytotoxicity against HEK293T cells assessed as inhibition of cell growth incubated for 24 hrs by CCK-8 assay

[5] = system: NCI-H1299; test: cells; assay type: functional, cell-based; settings: Homo sapiens, NCI-H1299, 24 h
Description: Antiproliferative activity against human NCI-H1299 cells assessed as inhibition of cell growth incubated for 24 hrs by CCK-8 assay

[6] = system: NCI-H1975; test: Induction of apoptosis in human NCI-H1975 cells assessed as dead cells at 10 micromol/L incubated for 24 hrs by Annexin V-FITC/PI staining based analysis (reference value: 0.103%); assay type: functional; settings: dose 10 µmol/L, at 10 µM
[7] = system: NCI-H1975; test: Induction of apoptosis in human NCI-H1975 cells assessed as live cells at 10 micromol/L incubated for 24 hrs by Annexin V-FITC/PI staining based analysis (reference value: 88.7%); assay type: functional; settings: dose 10 µmol/L, at 10 µM
[8] = system: NCI-H1975; test: Induction of apoptosis in human NCI-H1975 cells assessed as early apoptotic cells at 10 micromol/L incubated for 24 hrs by Annexin V-FITC/PI staining based analysis (reference value: 2.55%); assay type: functional; settings: dose 10 µmol/L, at 10 µM
[9] = system: NCI-H1299; test: Synergistic antiproliferative activity against human NCI-H1299 cells assessed as cell growth inhibition at 500 micromol/L incubated for 24 hrs in presence of ML265 by CCK-8 analysis; assay type: functional, cell-based; settings: dose 500.0 µmol/L
[10] = system: NCI-H1299; test: Induction of apoptosis in human NCI-H1299 cells assessed as late apoptotic cells at 500 micromol/L incubated for 24 hrs by Annexin V-FITC/PI staining based analysis (reference value: 2.63%); assay type: functional; settings: dose 500 µmol/L, at 500 µM
[11] = system: NCI-H1299; test: Induction of apoptosis in human NCI-H1299 cells assessed as late apoptotic cells at 500 micromol/L incubated for 24 hrs in presence of ML265 by Annexin V-FITC/PI staining based analysis (reference value: 2.63%); assay type: functional; settings: dose 500 µmol/L, at 500 µM
[12] = system: NCI-H1299; test: Induction of apoptosis in human NCI-H1299 cells assessed as early apoptotic cells at 500 micromol/L incubated for 24 hrs in presence of ML265 by Annexin V-FITC/PI staining based analysis (reference value: 0.772%); assay type: functional; settings: dose 500 µmol/L, at 500 µM
[13] = system: NCI-H1299; test: Inhibition of glycolysis in human NCI-H1299 cells assessed as reduction in lactate production incubated for 1 hrs in presence of ML265 by colorimetric assay; assay type: functional, cell-based
[14] = system: NCI-H1299; test: Induction of apoptosis in human NCI-H1299 cells assessed as live cells at 500 micromol/L incubated for 24 hrs by Annexin V-FITC/PI staining based analysis (reference value: 96.6%); assay type: functional; settings: dose 500 µmol/L, at 500 µM
[15] = system: NCI-H1299; test: Induction of apoptosis in human NCI-H1299 cells assessed as live cells at 500 micromol/L incubated for 24 hrs in presence of ML265 by Annexin V-FITC/PI staining based analysis (reference value: 96.6%); assay type: functional; settings: dose 500 µmol/L, at 500 µM
[16] = system: NCI-H1299; test: Induction of apoptosis in human NCI-H1299 cells assessed as early apoptotic cells at 500 micromol/L incubated for 24 hrs by Annexin V-FITC/PI staining based analysis (reference value: 0.772%); assay type: functional; settings: dose 500 µmol/L, at 500 µM
[17] = system: NCI-H1299; test: Antitumor activity against human NCI-H1299 cells xenografted in mouse assessed as pathological damage to tumor tissue administered in presence of ML265; assay type: functional
[18] = system: NCI-H1299; test: Synergistic induction of oxidative phosphorylation in human NCI-H1299 cells assessed as increase in ATP production in presence of ML265 by luminescence based assay; assay type: functional, cell-based
[19] = system: NCI-H1299; test: Inhibition of glycolysis in human NCI-H1299 cells assessed as reduction in glucose consumption incubated for 24 hrs in presence of ML265 by colorimetric assay; assay type: functional, cell-based
[20] = system: NCI-H1299; test: Induction of apoptosis in human NCI-H1299 cells assessed as dead cells at 500 micromol/L incubated for 24 hrs by Annexin V-FITC/PI staining based analysis (reference value: 0.021%); assay type: functional; settings: dose 500 µmol/L, at 500 µM
[21] = system: NCI-H1299; test: Induction of apoptosis in human NCI-H1299 cells assessed as dead cells at 500 micromol/L incubated for 24 hrs in presence of ML265 by Annexin V-FITC/PI staining based analysis (reference value: 0.021%); assay type: functional; settings: dose 500 µmol/L, at 500 µM
[22] = system: NCI-H1299; test: Synergistic inhibition of NADPH production in human NCI-H1299 cells incubated for 2 hrs in presence of ML265 by NADP+/NADPH assay; assay type: functional, cell-based
[23] = system: NCI-H1975; test: Induction of mitochondrial transmembrane potential dissipation in human NCI-H1975 cells assessed as cells with low mitochondrial transmembrane potential at 1 micromol/L by FL-1/FL-2 channel based fluorescence analysis (reference value: 2.13%); assay type: functional; settings: dose 1 µmol/L; at 1 µM
[24] = system: HCC827; test: Induction of apoptosis in human HCC827 cells assessed as late apoptotic cells at 2 micromol/L incubated for 24 hrs by Annexin V-FITC/PI staining based analysis (reference value: 8.42%); assay type: functional; settings: dose 2 µmol/L, at 2 µM
[25] = system: A549; test: Induction of apoptosis in human A549 cells assessed as late apoptotic cells at 2 micromol/L incubated for 24 hrs by Annexin V-FITC/PI staining based analysis (reference value: 3.18%); assay type: functional; settings: dose 2 µmol/L, at 2 µM
[26] = system: NCI-H1299; test: Induction of apoptosis in human NCI-H1299 cells assessed as late apoptotic cells at 2 micromol/L incubated for 24 hrs by Annexin V-FITC/PI staining based analysis (reference value: 14.9%); assay type: functional; settings: dose 2 µmol/L, at 2 µM
[27] = system: NCI-H1975; test: Induction of mitochondrial transmembrane potential dissipation in human NCI-H1975 cells assessed as cells with high mitochondrial transmembrane potential at 1 micromol/L by FL-1/FL-2 channel based fluorescence analysis (reference value: 97.4%); assay type: functional; settings: dose 1 µmol/L; at 1 µM
[28] = system: A549; test: Induction of apoptosis in human A549 cells assessed as early apoptotic cells at 2 micromol/L incubated for 24 hrs by Annexin V-FITC/PI staining based analysis (reference value: […]%); assay type: functional; settings: dose 2 µmol/L
[29] = system: HCC827; test: Induction of apoptosis in human HCC827 cells assessed as early apoptotic cells at 2 micromol/L incubated for 24 hrs by Annexin V-FITC/PI staining based analysis (reference value: 9.14%); assay type: functional; settings: dose 2 µmol/L, at 2 µM
[30] = system: NCI-H1299; test: Induction of apoptosis in human NCI-H1299 cells assessed as early apoptotic cells at 2 micromol/L incubated for 24 hrs by Annexin V-FITC/PI staining based analysis (reference value: 2.43%); assay type: functional; settings: dose 2 µmol/L, at 2 µM
[31] = system: NCI-H1975; test: Induction of apoptosis in human NCI-H1975 cells assessed as early apoptotic cells at 2 micromol/L incubated for 24 hrs by Annexin V-FITC/PI staining based analysis (reference value: 1.88%); assay type: functional; settings: dose 2 µmol/L, at 2 µM
[32] = system: NCI-H1975; test: Induction of apoptosis in human NCI-H1975 cells assessed as late apoptotic cells at 2 micromol/L incubated for 24 hrs by Annexin V-FITC/PI staining based analysis (reference value: 2.66%); assay type: functional; settings: dose 2 µmol/L, at 2 µM

Row | Compound | IC50 [1] [µM] | IC50 [2] [µM] | IC50 [3] [µM] | IC50 at 24 h [4] [µM] | IC50 [5] [µM] | other results
1 | COC(=O)[C@H](CS[C@H](CC=C(C)C)C1=CC(=O)c2c(O)ccc(O)c2C1=O)NC(=O)CCCC[C@@H]1CCSC(c2ccccc2)S1 (some centres not stated) | 11.5 | 6.09 | 8.6 | 95.5 | 6.33 | –
2 | COC(=O)[C@H](CS[C@H](CC=C(C)C)C1=CC(=O)c2c(O)ccc(O)c2C1=O)NC(=O)CCCC[C@@H]1CCSC(c2ccc(OCc3ccccc3)cc2)S1 (some centres not stated) | 15.7 | 19.3 | 13.3 | 88.7 | 24.8 | –
3 | COC(=O)[C@H](CS[C@H](CC=C(C)C)C1=CC(=O)c2c(O)ccc(O)c2C1=O)NC(=O)CCCC[C@@H]1CCSC(c2ccccc2Cl)S1 (some centres not stated) | 8.3 | 8.31 | 9.56 | 84.5 | 6.73 | –
4 | COC(=O)[C@H](CS[C@H](CC=C(C)C)C1=CC(=O)c2c(O)ccc(O)c2C1=O)NC(=O)CCCC[C@@H]1CCSC(c2ccc(Cl)cc2)S1 (some centres not stated) | 8.26 | 10.9 | 11.5 | 86 | 8.26 | –
5 | COC(=O)[C@H](CS[C@H](CC=C(C)C)C1=CC(=O)c2c(O)ccc(O)c2C1=O)NC(=O)CCCC[C@@H]1CCSC(C2CCCCC2)S1 (some centres not stated) | 13.3 | 11.5 | 18.3 | 86.1 | 11.6 | –
6 | COC(=O)[C@H](CS[C@H](CC=C(C)C)C1=CC(=O)c2c(O)ccc(O)c2C1=O)NC(=O)CCCC[C@@H]1CCSC(c2ccc(Br)cc2)S1 (some centres not stated) | 4.68 | 13.2 | 18.1 | 88.8 | 3.27 | –
7 | COc1cc2ncnc(Nc3ccc(F)c(Cl)c3)c2cc1OCCCN1CCOCC1 [GEFITINIB] | – | – | – | – | – | Activity [6]: 0%; Activity [7]: 89%; Activity [8]: 1.45%
8 | COC(=O)[C@H](CS[C@H](CC=C(C)C)C1=CC(=O)c2c(O)ccc(O)c2C1=O)NC(=O)CCCC[C@@H]1CCSC(c2ccc([N+](=O)[O-])cc2)S1 (some centres not stated) | 17 | 25.9 | 21.8 | 94.2 | 5.34 | –
9 | CN(C)C(=O)c1ccc(S(=O)(=O)c2ccc(NC(=O)[C@@](C)(O)C(F)(F)F)c(Cl)c2)cc1 | – | – | – | – | – | Activity [9]: Active; Activity [10]: 12.1%; Activity [11]: 71.7%; Activity [12]: 7.63%; inhibition [13]: Active; Activity [14]: 59%; Activity [15]: 20.6%; Activity [16]: 28.9%; Activity [17]: Active; Activity [18]: Active; inhibition [19]: Active; Activity [20]: 0.01%; Activity [21]: 0%; inhibition [22]: Active
10 | CC(C)=CC[C@@H](O)C1=CC(=O)c2c(O)ccc(O)c2C1=O [SHIKONIN] | 4.56 | 9.21 | 4.47 | 2.63 | 3.95 | Activity [23]: 8.69%; Activity [24]: 22.1%; Activity [25]: 4.66%; Activity [26]: 17.2%; Activity [27]: 91.3%; Activity [28]: 10.7%; Activity [29]: 27.5%; Activity [30]: 4.34%; Activity [31]: 8.91%; Activity [32]: 9.96%
11 | COC(=O)[C@H](CS[C@H](CC=C(C)C)C1=CC(=O)c2c(O)ccc(O)c2C1=O)NC(=O)CCCC[C@@H]1CCSC(c2cccc(Br)c2)S1 (some centres not stated) | 7.4 | 11.8 | 15.2 | 96.7 | 3.53 | –

Further lines, with some results ahead:

Row | IC50 [1] [µM] | IC50 [2] [µM] | IC50 [3] [µM] | IC50 at 24 h [4] [µM] | IC50 [5] [µM] | Compound | other results
12 | 1.7 | 16.6 | 16.1 | 98.2 | 4.5 | COC(=O)[C@H](CS[C@H](CC=C(C)C)C1=CC(=O)c2c(O)ccc(O)c2C1=O)NC(=O)CCCC[C@@H]1CCSC(c2cccc(Cl)c2Cl)S1 (some centres not stated) | –
13 | 4.12 | 10.4 | 12.4 | 80.4 | 10.5 | COC(=O)[C@H](CS[C@H](CC=C(C)C)C1=CC(=O)c2c(O)ccc(O)c2C1=O)NC(=O)CCCC[C@@H]1CCSC(c2ccc(C)cc2)S1 (some centres not stated) | –
14 | 2.71 | 6.44 | 2.34 | 86.2 | 2.81 | COC(=O)[C@H](CS[C@H](CC=C(C)C)C1=CC(=O)c2c(O)ccc(O)c2C1=O)NC(=O)CCCC[C@@H]1CCSC(c2ccc(OC)cc2)S1 (some centres not stated) | –
15 | 3.66 | 4.34 | 4.59 | 83.8 | 3.53 | COC(=O)[C@H](CS[C@H](CC=C(C)C)C1=CC(=O)c2c(O)ccc(O)c2C1=O)NC(=O)CCCC[C@@H]1CCSC(c2cccc(C(F)(F)F)c2)S1 (some centres not stated) | –
16 | 4.08 | 4.21 | 4.21 | 77.5 | 4.93 | COC(=O)[C@H](CS[C@H](CC=C(C)C)C1=CC(=O)c2c(O)ccc(O)c2C1=O)NC(=O)CCCC[C@@H]1CCSC(c2ccc(C(C)C)cc2)S1 (some centres not stated) | –
17 | 2.32 | 7.15 | 6.49 | 84.9 | 4.58 | COC(=O)[C@H](CS[C@H](CC=C(C)C)C1=CC(=O)c2c(O)ccc(O)c2C1=O)NC(=O)CCCC[C@@H]1CCSC(c2ccc(C(F)(F)F)cc2)S1 (some centres not stated) | –
